Structures can show the parent of a compound that is named as a salt.
Legend:
THP-1 cells = assay: Human monocytic THP-1 cell differentiation assay for soluble proteins (THP-1 soluble protein assay); format: cell-based; settings: LPS-stimulated THP-1 cells, soluble protein not given
Excerpt: Mitogenic stimulation of THP-1 cells cause differentiation into macrophage like cells with concomitant secretion of tumor necrosis factor (TNF-α) and TNF receptor (TNF-R p75/80 and TNF-R p55160) and Interleukin-8 (IL-8), among other proteins. In addition, non-stimulated THP-1 cells shed both the p75/80 and the p55/60 receptors over time. The release of membrane bound TNF-α and possibly TNF-R p75/80 and TNF-R p55/60, but not IL-8, is mediated by an enzyme called TNF-α converting enzyme or TACE.
THP-1 cells (from ATCC) are a human monocytic cell line which were obtained from the peripheral blood of a person with acute monocytic leukemia. They can be grown in culture and differentiated into macrophage like cells by stimulation with mitogens.
Each vial of cells are cultured for about two weeks prior to being used for an assay and then are used for only 4 to 6 weeks to screen compounds.
Cell exposure to DMSO was limited to 0.1% final concentration. […] Compounds can be evaluated for their effect on basal (non-stimulated) shedding of the receptors by replacing the LPS with […] of THP-1 media.
Plates are placed into an incubator set at 5% CO2 and at 37° C. After 4 hours of incubation, […] of tissue culture supernatant (TCS) is removed for use in an TNF-α ELISA. Following 24 hours of incubation, […] of TCS is removed and used for analysis in TNF-R p75/80, TNF-R p55160 and IL-8 ELISAs.
In addition, at the 24 hours timepoint, and the cells for each treatment group are collected by resuspension in 500 μl/well of THP-1 media and transferred into a FACS tube. […] The samples are run on a Becton Dickinson FaxCaliber FLOW cytometry machine and the amount of dye taken up by each cell is measured in the high red wavelength (FL3). Only cells with compromised membranes (dead or dying) can take up PI. The percent of live cells is calculated by the number of cells not stained with PI, divided by the total number of cells in the sample. The viability values calculated for the drug treated groups were compared to the viability value calculated for the vehicle treated mitogen stimulated group (“vehicle positive control”) to determine the “percent change from control”. This “percent change from control” value is an indicator of drug toxicity.
The quantity of soluble TNF-α, TNF-R p75/80 and TNF-R p55160 and IL-8 in the TCS of the THP-1 cell cultures are obtained with commercially available ELISAs from R&D Systems, by extrapolation from a standard curve generated with kit standards. The number of cells that either take up or exclude PI are measured by the FLOW cytometry machine and visualized by histograms using commercially available Cytologic software for each treatment group including all controls.
Biological variability in the magnitude of the response of THP-1 cell cultures requires that experiments be compared on the basis of percent change from “vehicle positive control” for each drug concentration. Percent change in each soluble protein evaluated from the “vehicle positive control” was calculated for each compound concentration with the following formula: [formula]
For the soluble protein (TNF-α, p75/80, p55/60, IL-8) studies under stimulated conditions, the mean pg/ml of duplicate wells were determined and the results expressed as percent change from “vehicle positive control”. For the soluble protein (p75/80 and p55/60 receptors) studies under non-stimulated conditions, the mean pg/ml of duplicate wells were determined and the results expressed as percent change from “vehicle positive control” utilizing the following formula: [formula]
IC50 values for each compound are calculated by non-linear regression analysis using customized software utilizing the JUMP statistical package.
For the cell viability studies, the viabilities (PI exclusion) of pooled duplicate wells were determined and the results expressed as % change from “vehicle positive control”.

MMP-9 = MMP-9 (Homo sapiens, UniProt P14780); assay: MMP-9 inhibition (thiopeptide or fluorescent peptide substrate); format: biochemical; settings: for IC50: read-out: MMP9 IC50
MMP-9, sequence (P14780 94-707): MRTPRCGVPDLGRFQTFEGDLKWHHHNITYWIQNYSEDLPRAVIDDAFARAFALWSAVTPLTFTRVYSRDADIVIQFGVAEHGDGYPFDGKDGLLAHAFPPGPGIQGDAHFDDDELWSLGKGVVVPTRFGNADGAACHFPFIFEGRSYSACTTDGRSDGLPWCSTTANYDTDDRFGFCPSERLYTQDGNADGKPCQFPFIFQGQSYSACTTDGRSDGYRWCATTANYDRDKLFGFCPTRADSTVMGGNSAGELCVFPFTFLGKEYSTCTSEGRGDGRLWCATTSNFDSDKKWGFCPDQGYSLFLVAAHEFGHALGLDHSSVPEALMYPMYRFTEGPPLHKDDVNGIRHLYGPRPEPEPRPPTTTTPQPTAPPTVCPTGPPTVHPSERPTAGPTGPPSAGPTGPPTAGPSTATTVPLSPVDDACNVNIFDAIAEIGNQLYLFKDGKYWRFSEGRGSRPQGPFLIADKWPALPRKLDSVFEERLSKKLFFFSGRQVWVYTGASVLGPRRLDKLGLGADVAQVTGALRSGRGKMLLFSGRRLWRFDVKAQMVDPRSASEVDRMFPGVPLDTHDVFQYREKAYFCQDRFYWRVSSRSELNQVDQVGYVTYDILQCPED
Procedure: (§1) These standard pharmacological test procedures are based on the cleavage of a thiopeptide substrates such as Ac-Pro-Leu-Gly(2-mercapto-4-methyl-pentanoyl)-Leu-Gly-OEt by the matrix metalloproteinases MMP-1, MMP-13 (collagenases) or MMP-9 (gelatinase), which results in the release of a substrate product that reacts colorimetrically with DTNB (5,5′-dithiobis(2-nitro-benzoic acid)). The enzyme activity is measured by the rate of the color increase. The thiopeptide substrate is made up fresh as a 20 mM stock in 100% DMSO and the DTNB is dissolved in 100% DMSO as a 100 mM stock and stored in the dark at room temperature. Both the substrate and DTNB are diluted together to 1 mM with substrate buffer (50 mM HEPES pH 7.5, 5 mM CaCl2) before use. The stock of enzyme is diluted with buffer (50 mM HEPES, pH 7.5, 5 mM CaCl2, 0.02% Brij) to the desired final concentration. The buffer, enzyme, vehicle or inhibitor, and DTNB/substrate are added in this order to a 96 well plate (total reaction volume of 200 μl) and the increase in color is monitored spectrophotometrically for 5 minutes at 405 nm on a plate reader and the increase in color over time is plotted as a linear line.
(§2) Alternatively, a fluorescent peptide substrate is used. In this test procedure, the peptide substrate contains a fluorescent group and a quenching group. Upon cleavage of the substrate by an MMP, the fluorescence that is generated is quantitated on the fluorescence plate reader. The assay is run in HCBC assay buffer (50 mM HEPES, pH 7.0, 5 mM Ca^+2, 0.02% Brij, 0.5% Cysteine), with human recombinant MMP-1, MMP-9, or MMP-13. The substrate is dissolved in methanol and stored frozen in 1 mM aliquots. For the assay, substrate and enzymes are diluted in HCBC buffer to the desired concentrations. Compounds are added to the 96 well plate containing enzyme and the reaction is started by the addition of substrate. The reaction is read (excitation 340 nm, emission 444 nm) for 10 min. and the increase in fluorescence over time is plotted as a linear line.
(§3) For either the thiopeptide or fluorescent peptide test procedures, the slope of the line is calculated and represents the reaction rate. The linearity of the reaction rate is confirmed (r^2>0.85). The mean (x±sem) of the control rate is calculated and compared for statistical significance (p<0.05) with drug-treated rates using Dunnett's multiple comparison test. Dose-response relationships can be generated using multiple doses of drug and IC50 values with 95% CI are estimated using linear regression.

[1] = molecular target: TNF-α converting enzyme (TACE) (Homo sapiens, UniProt P78536); assay: Test procedure for measuring TACE inhibition (fluorescent peptidyl substrate); format: biochemical
TNF-α converting enzyme (TACE), sequence (P78536 215-824): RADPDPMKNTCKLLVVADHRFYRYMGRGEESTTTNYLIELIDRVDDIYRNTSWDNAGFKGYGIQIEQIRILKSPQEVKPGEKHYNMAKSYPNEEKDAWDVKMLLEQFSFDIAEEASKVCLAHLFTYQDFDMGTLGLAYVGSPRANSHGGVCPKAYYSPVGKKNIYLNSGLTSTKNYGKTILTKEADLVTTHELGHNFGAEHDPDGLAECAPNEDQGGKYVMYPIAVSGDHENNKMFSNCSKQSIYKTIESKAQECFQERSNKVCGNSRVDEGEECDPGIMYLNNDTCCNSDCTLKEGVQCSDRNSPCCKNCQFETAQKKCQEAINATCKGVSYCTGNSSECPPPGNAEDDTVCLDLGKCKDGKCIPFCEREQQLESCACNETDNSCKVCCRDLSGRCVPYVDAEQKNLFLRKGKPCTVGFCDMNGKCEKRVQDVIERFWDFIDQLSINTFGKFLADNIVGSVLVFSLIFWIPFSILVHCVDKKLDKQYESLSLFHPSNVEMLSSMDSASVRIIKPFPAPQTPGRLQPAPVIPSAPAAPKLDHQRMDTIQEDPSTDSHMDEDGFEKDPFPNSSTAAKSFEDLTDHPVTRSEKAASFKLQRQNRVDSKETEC
Procedure: Using 96-well black microtiter plates, each well receives a solution composed of 10 μL TACE (final concentration 1 μg/mL), 70 μL Tris buffer, pH 7.4 containing 10% glycerol (final concentration 10 mM), and 10 μL of test compound solution in DMSO (final concentration 1 μM, DMSO concentration <1%) and incubated for 10 minutes at room temperature. The reaction is initiated by addition of a fluorescent peptidyl substrate (final concentration 100 μM to each well and then shaking on a shaker for 5 sec.
The reaction is read (excitation 340 nm, emission 420 nm) for 10 min. and the increase in fluorescence over time is plotted as a linear line. The slope of the line is calculated and represents the reaction rate.
The mean (x±sem) of the control rate is calculated and compared for statistical significance (p<0.05) with drug-treated rates using Dunnett's multiple comparison test.

MMP-13 = MMP-13 (Homo sapiens, UniProt P45452); assay: MMP-13 inhibition (thiopeptide or fluorescent peptide substrate); format: biochemical; settings: for IC50: read-out: MMP13 IC50
Procedure: The enzyme activity is measured by the rate of the color increase. The thiopeptide substrate is made up fresh as a 20 mM stock in 100% DMSO and the DTNB is dissolved in 100% DMSO as a 100 mM stock and stored in the dark at room temperature. Both the substrate and DTNB are diluted together to 1 mM with substrate buffer (50 mM HEPES pH 7.5, 5 mM CaCl2) before use. The stock of enzyme is diluted with buffer (50 mM HEPES, pH 7.5, 5 mM CaCl2, 0.02% Brij) to the desired final concentration.
as §2, with “substrate.” for “substrate. The reaction is read (excitation 340 nm, emission 444 nm) for 10 min. and the increase in fluorescence over time is plotted as a linear line.”
For either the thiopeptide or fluorescent peptide test procedures, the slope of the line is calculated and represents the reaction rate. […] The mean (x±sem) of the control rate is calculated and compared for statistical significance (p<0.05) with drug-treated rates using Dunnett's multiple comparison test.

MMP-1 = molecular target: T1, MMP-1 (Homo sapiens, UniProt P03956); assay: MMP-1 inhibition (thiopeptide or fluorescent peptide substrate); format: biochemical; settings: for IC50: read-out: MMP1 IC50
T1 sequence (P03956 100-469): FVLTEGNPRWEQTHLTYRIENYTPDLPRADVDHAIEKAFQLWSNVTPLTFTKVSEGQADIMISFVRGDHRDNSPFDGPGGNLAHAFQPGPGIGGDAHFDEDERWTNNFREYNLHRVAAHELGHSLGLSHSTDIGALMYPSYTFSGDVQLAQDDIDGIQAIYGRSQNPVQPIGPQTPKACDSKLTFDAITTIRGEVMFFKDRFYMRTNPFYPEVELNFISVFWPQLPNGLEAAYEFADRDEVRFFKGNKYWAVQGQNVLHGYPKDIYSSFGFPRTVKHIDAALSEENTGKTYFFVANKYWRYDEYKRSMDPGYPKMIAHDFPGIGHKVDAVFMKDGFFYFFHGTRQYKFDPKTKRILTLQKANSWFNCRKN
Procedure: as §1, §2, §3

SMILES	inhibition at 3 µM (THP-1 cells)	IC50 (MMP-9)	IC50 [1]	IC50 (MMP-13)	further results
CC#CCOc1ccc(S(=O)(=O)C2(C(=O)NO)CCN(Cc3ccc(Cl)c(Cl)c3)CC2)cc1 (as salt: HCl) [Example 10, 4-(4-But-2-ynyloxy-benzenesulfonyl)-1-(3,4-dichloro-benzyl)-piperidine-4-carboxylic acid hydroxyamide]					melting point: 213 °C
CCCCCC#CCOc1ccc(S(=O)(=O)C2(C(=O)NO)CCN(Cc3ccc(Br)cc3)CC2)cc1 (as salt: hydrochloride) [Example 6, 1-(4-Bromo-benzyl)-4-(4-oct-2-ynyloxy-benzenesulfonyl)-piperdine-4-carboxylic acid hydroxyamide]					melting point: 140 °C
O=C(NO)C1(S(=O)(=O)c2ccc(OCC#CCN3CCOCC3)cc2)CCN(Cc2ccc(Br)cc2)CC1 [Example 13, 1-(4-Bromo-benzyl)-4-[4-(4-morpholin-4-yl-but-2-ynyloxy)-benzenesulfonyl]-piperdine-4-carboxylic acid hydroxyamide]	69%	2000 nM	882 nM	800 nM	
CC#CCOc1ccc(SC2(C(=O)NO)CCNCC2)cc1 [Example 15, 4-(4-But-2-ynyloxy-phenylsulfanyl)-piperidine-4-carboxylic acid hydroxyamide]					MMP9 % inhibition (MMP-9; printed in the MMP9 IC50 column, concentration not given): 25%; MMP1 % inhibition (MMP-1; printed in the MMP1 IC50 column, concentration not given): 24%; inhibition at 1 µM [1]: 38%; MMP13 % inhibition (MMP-13; MMP13 IC50, concentration not given): 24%
CC#CCOc1ccc(SCC2(C(=O)NO)CCOCC2)cc1 [Example 17, 4-(4-But-2-ynyloxy-phenylsulfanylmethyl)-tetrahydro-pyran-4-carboxylic acid hydroxyamide]	0%	2300 nM	139 nM	946 nM	
CC#CCOc1ccc(S(=O)(=O)CC2(C(=O)NO)CCOCC2)cc1 [Example 18, 4-(4-But-2-ynyloxy-benzenesulfonylmethyl)-tetrahydro-pyran-4-carboxylic acid hydroxyamide]	45%	1280 nM	11.4 nM	98 nM	
CC#CCOc1ccc([S+]([O-])CC2(C(=O)NO)CCOCC2)cc1 (centres unmarked) [Example 19, 4-(4-But-2-ynyloxy-benzenesulfinylmethyl)-tetrahydro-pyran-4-carboxylic acid hydroxyamide]	4%		74 nM	1320 nM	
CC#CCOc1ccc(S(=O)(=O)CC2(C(=O)NO)CCN(CC#CC)CC2)cc1 [Example 37, 1-(2-Butynyl)-4-({[4-(2-butynyloxy)phenyl]sulfonyl}methyl)-N-hydroxy-4-piperidinecarboxamide hydrochloride]		8580 nM	18 nM	1020 nM	IC50 (MMP-1): 8600 nM
CC#CCOc1ccc(S(=O)(=O)CC2(C(=O)NO)CCN(C(=O)OC)CC2)cc1 [Example 39, Methyl 4-({[4-(2-butynyloxy)phenyl]sulfonyl}methyl)-4-[(hydroxyamino)-carbonyl]-1-piperidinecarboxylate]		4280 nM	11 nM	809 nM	IC50 (MMP-1): 3770 nM

From patent US6753337B2, “Alkynyl containing hydroxamic acid compounds as matrix metalloproteinase/tace inhibitors” (Wyeth Holdings Corporation, priority 1999, dated 2004)
